Source: US20100010025A1, “Pyrimidine Derivatives” (Norvartis AG, priority 2006, published 2010)

Key:
JAK-2 = target: T1, JAK-2 (Homo sapiens, UniProt O60674); assay: JAK kinase assay (JAK-2), time-resolved fluorescence energy transfer or radiometric filter-binding/flash plate; type: biochemical; settings: GST fusion of JAK-2 kinase domain (JH-1)
T1 construct: contain the kinase domain (JH-1 domain) of the full length proteins and are used as GST fusion proteins
Protocol: (§1) JAK-2 or JAK-3 enzymatic activity is determined using a time-resolved fluorescence energy transfer technology. The phosphorylation of a synthetic biotinylated peptide substrate (GGEEEYFELVKKKK) by either JAK-2 or JAK-3 in the presence of ATP is quantified using Europium labeled anti phosphotyrosine antibody and Streptavidin-Allophycocyanin Both JAK-2 and JAK-3 enzymes used in these assays contain the kinase domain (JH-1 domain) of the full length proteins and are used as GST fusion proteins.
(§2) Inhibitors are dissolved in DMSO. Dilutions are prepared in 90% DMSO followed by additional dilutions steps as required to perform a 8-point concentration-response.
(§3) The reaction mix consists of 5 μL of diluted compound, 10 μl of assay buffer and 5 μl of enzyme dilution. After incubation for 60 minutes at room temperature the reaction is stopped by the addition of EDTA. For detection of the product anti-phosphotyrosine antibody and Streptavidin-APC are added and after 60 minutes the samples are measured in an EnVision 2102 Multilabel Reader with excitation wavelength of 320 nm and emission at 665 nm. […] Membranes are counted after drying at ambient temperature, mounting in Packard TopCount 96-well frame, and addition of 10 μl/well of Microscint. The plates are eventually sealed and counted in a microplate scintillation counter (TopCount NXT, TopCount NXT HTS, PerkinElmer, Brussels, Belgium).

JAK-3 = target: T2, JAK-3 (Homo sapiens, UniProt P52333); assay: JAK kinase assay (JAK-3), time-resolved fluorescence energy transfer or radiometric filter-binding/flash plate; type: biochemical; settings: GST fusion of JAK-3 kinase domain (JH-1)
T2 construct: contain the kinase domain (JH-1 domain) of the full length proteins and are used as GST fusion proteins
T2 sequence (P52333 822-1111 limits assumed, species assumed): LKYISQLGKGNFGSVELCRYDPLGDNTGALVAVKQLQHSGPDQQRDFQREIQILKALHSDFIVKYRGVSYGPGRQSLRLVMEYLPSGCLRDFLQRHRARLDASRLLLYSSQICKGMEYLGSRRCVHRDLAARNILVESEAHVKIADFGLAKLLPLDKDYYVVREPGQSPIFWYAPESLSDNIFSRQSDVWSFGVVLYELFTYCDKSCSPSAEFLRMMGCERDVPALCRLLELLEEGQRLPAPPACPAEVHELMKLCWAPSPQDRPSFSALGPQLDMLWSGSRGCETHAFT
Protocol: as §1, §2, §3

T1 sequence (O60674 849-1124 limits assumed, species assumed): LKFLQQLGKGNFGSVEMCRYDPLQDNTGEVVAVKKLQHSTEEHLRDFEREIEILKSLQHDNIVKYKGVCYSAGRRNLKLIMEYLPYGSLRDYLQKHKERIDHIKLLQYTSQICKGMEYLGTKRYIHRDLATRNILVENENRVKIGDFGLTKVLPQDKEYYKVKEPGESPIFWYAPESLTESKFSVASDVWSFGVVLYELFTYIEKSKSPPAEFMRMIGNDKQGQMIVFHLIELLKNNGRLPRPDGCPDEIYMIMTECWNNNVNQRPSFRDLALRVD

| Compound | IC50 (JAK-2) [nM] | IC50 (JAK-3) [nM] |
| --- | --- | --- |
| CNS(=O)(=O)c1ccccc1Nc1nc(Nc2cc(OC)ccc2F)ncc1C(N)=O [Example 5, 2-(2-Fluoro-5-methoxy-phenylamino)-4-(2-methylsulfamoyl-phenylamino)-pyrimidine-5-carboxylic acid amide] | 179 | – |
| COc1ccc(F)c(Nc2ncc(C(N)=O)c(Nc3ccccc3N(C)S(C)(=O)=O)n2)c1 [Example 6, 2-(2-Fluoro-5-methoxy-phenylamino)-4-[2-(methanesulfonyl-methyl-amino)-phenylamino]-pyrimidine-5-carboxylic acid amide] | – | 26 |
